Like-named read-outs stand apart in the source and are kept apart here.
Assays:
human β-globin gene = assay: Detection of single-copy gene sequence in Southern blot of Eco RI digested human DNA; details: NBT/BCIP dye system; probe 100 ng/ml, hybridization 16-24 hours
Experimental: A plasmid containing the 1.1 Kb Mst II fragment of the human β-globin gene in the Eco RI site of pBR322 (obtained from Dr. Y. W. Kan, UCSF) was nick translated with either Biotin-n-dATP in the presence of dTTP, dCTP, and dGTP, or Biotin-n-dCTP in the presence of dATP, dTTP, and dGTP. All nucleotides were at 20 μM and the reaction was allowed to proceed for 90 minutes. Conditions for nick translation of the DNA probe and purification of the biotin-labeled material are given in the manual of the BRL DNA Detection System.
The biotinylated probe was hybridizedto a Southern blot of Eco RI digested human DNA or to an Eco RI digest of the plasmid DNA. Probe concentration was 100 ng/ml and hybridization was allowed to proceed for 16-24 hours under conditions described by Leary et al. (Leary, J. J., Brigati, D. J. and Ward, D. C. (1983) Proc. Natl. Acad. Sci. USA 80 4045-4049). The filter was developed with the BRL Detection System as described in the system's instruction manual. The single copy β-globin gene Fragment at 5.2 Kb was observed within 3 hours of staining with the NBT/BCIP dye system for DNA probes labeled with Biotin-n-dATP where n=3, 7, 10 or 14 and Biotin-n-dCTP where n=7 or 10.

[1] = test system: streptavidin-biotin alkaline phosphatase system; assay: Sensitivity of detection of probes biotinylated with various linker lengths, spotted on nitrocellulose
Experimental: (§1) The reaction volume was 1 ml. At 10 minutes, 30 minutes and 90 minutes, 200 μl of the reaction mixture was removed and the reaction quenched with 30 mM EDTA. The DNA from each sample was purified on a Sephade® G-50 column. […] In Table 2, "+" or "-" indicates the presence or absence, respectively of visible spots; it can be seen that a high degree of sensitivity exists even with a relatively low level of biotin incorporation.
Probes biotinylated with various linker lengths were then compared for sensitivity of detection. Plasmid DNA was nick translated according to the described protocol with Biotin-n-dATP, for n=7, 14, 3 or 10. The biotinylated DNA's were then purified from unincorporated nucleotides by gel filtration on Sephadex® G-50 in 1×SSC (0.15 M NaCl, 0.015 M sodium citrate) containing 0.1% SDS. The biotinylated DNA was diluted into 6×SSC containing 0.2 μg/μl sheared herring sperm DNA and spotted onto nitrocellulose paper in the range of 50 pg/5 μl to 1 pg/5 μl. After 30 minutes' incubation in the NBT/BCIP dye mixture of the BRL DNA Detection System, 2 pg spots of Bio-7, 14 or 10-dATP labeled probe and a 5 pg spot of Bio-3-dATP labeled probe were visible. After 1.5 hours, the 1 pg spot of each biotin-dATP-labeled probe was visible.

DNA polymerase I [2] = target: T1, DNA polymerase I (Escherichia coli, UniProt P00582); assay: Incorporation of dATP/dCTP and analogs into plasmid DNA by nick translation (3H-dGTP tracer); assay type: biochemical, E. coli; details: 1.5 h, tracer 3H-dGTP incorporation relative to reaction mixture containing dNTP's and no derivatives, duplicate figures = two determinations
T1 construct: purchased BRL (Nick Translation System)
Experimental: Incorporation into Plasmid DNA of Biotinylated dATP Derivatives
The time course and levels of incorporation were studied as a function of linker size.
(§2) Using the BRL Nick Translation System, dATP and various derivatives were incorporated into plasmid DNA.
(§3) At each time point of interest, 2 μl from the reaction mixture was withdrawn, spotted on glass fiber filters (GF/C), washed in 10% trichloroacetic acid (TCA) once and 5% TCA twice, and dried after washing in alcohol. The filters were counted in a liquid scintillation counter.
The relative levels of incorporation of the modified nucleotides at the 90 minute time point are seen in Table 1 below, in which the data are reported as percent incorporation of the tracer radio-nucleotide (^3 H-dGTP) relative to incorporation resulting from a reaction mixture containing dNTP's and no derivatives. Duplicate figures indicate two determinations. Results for dCTP and analogs appear also.

DNA polymerase I [3] = target: T1, DNA polymerase I; assay: Incorporation using radiolabelled biotin-nucleotide (32P-dCTP and 3H-biotin); assay type: biochemical, E. coli; details: 20 μM [3H-biotin]-7-dATP; FIG. 6
Experimental: as §2, §3
Using the same protocol, incorporation was then performed using a radiolabelled biotin-nucleotide. Thus, the level of biotin incorporation was directly determined. 200 μl of the reaction mixture contained 10 μCi of α-^32 PdCTP and either 20 μM dATP or 20 μM [^3 H-biotin]-7-dATP. […] The lower curves show the time courses of incorporation of ^32 P-dCMP and the tritium labelled and biotinylated derivative of dAMP.

DNA polymerase I [4] = target: T1, DNA polymerase I; assay: Incorporation of various levels of Bio-7-dATP into plasmid DNA by nick translation; assay type: biochemical, E. coli
Experimental: as §2
To examine the detection sensitivity of probes made from the biotinylated nucleotides of the present invention, incorporation of various levels of Bio-7-dATP into plasmid DNA was carried out by nick translation as previously disclosed.
as §1

[5] = after 30 minutes' incubation in NBT/BCIP dye mixture
[6] = 90 min, 15° C., read-out: % Incorporation (90 min.)

T1 sequence (P00582 whole entry): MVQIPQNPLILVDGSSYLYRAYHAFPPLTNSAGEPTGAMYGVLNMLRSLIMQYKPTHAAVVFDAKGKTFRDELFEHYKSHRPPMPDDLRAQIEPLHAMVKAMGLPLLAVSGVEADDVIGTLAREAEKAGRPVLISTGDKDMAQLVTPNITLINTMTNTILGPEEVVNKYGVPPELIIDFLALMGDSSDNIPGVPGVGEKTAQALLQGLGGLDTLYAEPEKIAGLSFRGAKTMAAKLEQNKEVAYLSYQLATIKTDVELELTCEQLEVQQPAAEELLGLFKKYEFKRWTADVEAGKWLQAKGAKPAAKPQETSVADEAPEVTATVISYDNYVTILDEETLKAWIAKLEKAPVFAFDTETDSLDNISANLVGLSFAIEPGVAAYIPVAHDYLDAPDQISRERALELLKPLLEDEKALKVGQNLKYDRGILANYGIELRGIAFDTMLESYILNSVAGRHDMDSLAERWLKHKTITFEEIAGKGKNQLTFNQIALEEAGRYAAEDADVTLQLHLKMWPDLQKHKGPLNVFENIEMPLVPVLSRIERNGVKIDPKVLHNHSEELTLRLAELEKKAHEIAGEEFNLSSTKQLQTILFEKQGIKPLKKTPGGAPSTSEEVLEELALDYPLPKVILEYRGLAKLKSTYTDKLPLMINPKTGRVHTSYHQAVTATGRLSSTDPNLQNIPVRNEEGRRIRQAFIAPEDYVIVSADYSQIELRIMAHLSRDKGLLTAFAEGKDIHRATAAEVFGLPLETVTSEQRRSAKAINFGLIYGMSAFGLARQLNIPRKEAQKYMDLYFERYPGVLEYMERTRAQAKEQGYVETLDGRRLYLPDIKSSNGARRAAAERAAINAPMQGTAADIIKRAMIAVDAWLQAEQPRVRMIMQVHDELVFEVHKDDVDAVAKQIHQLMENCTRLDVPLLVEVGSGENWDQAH

Molecule	time of staining within which single copy β-globin gene fragment at 5.2 Kb was observed (human β-globin gene)	spot of labeled probe visible (sensitivity) [1, 5]	activity at 20 µM (DNA polymerase I [2]; [6])	other results
O=C(CCCC[C@@H]1SC[C@@H]2NC(=O)N[C@@H]21)NCCNc1ncnc2c1ncn2[C@H]1C[C@H](O)[C@@H](COP(=O)(O)OP(=O)(O)OP(=O)(O)O)O1 [Biotin-3-dATP]	≤ 3 h	5 pg	29%	
O=C(CCCC[C@@H]1SC[C@@H]2NC(=O)N[C@@H]21)NCCNc1ccn([C@H]2C[C@H](O)[C@@H](COP(=O)(O)OP(=O)(O)OP(=O)(O)O)O2)c(=O)n1 [Biotin-3-dCTP]			12%	
O=C(CCCC[C@@H]1SC[C@@H]2NC(=O)N[C@@H]21)NCCCCCCNc1ncnc2c1ncn2[C@H]1C[C@H](O)[C@@H](COP(=O)(O)OP(=O)(O)OP(=O)(O)O)O1 [Biotin-7-dATP, N^6-(6-hexylamidobiotin)-2'-deoxyadenosine 5'-triphosphate]	≤ 3 h	2 pg	53%	
O=C(CCCC[C@@H]1SC[C@@H]2NC(=O)N[C@@H]21)NCCCCCCNc1ccn([C@H]2C[C@H](O)[C@@H](COP(=O)(O)OP(=O)(O)OP(=O)(O)O)O2)c(=O)n1 [Biotin-7-dCTP]	≤ 3 h		44%	
O=C(CCCC[C@@H]1SC[C@@H]2NC(=O)N[C@@H]21)NCCCCCCNC(=O)CNc1ncnc2c1ncn2[C@H]1C[C@H](O)[C@@H](COP(=O)(O)OP(=O)(O)OP(=O)(O)O)O1 [Biotin-10'-dATP]			6.9%	
O=C(CCCC[C@@H]1SC[C@@H]2NC(=O)N[C@@H]21)NCCCCCC(=O)NCCNc1ncnc2c1ncn2[C@H]1C[C@H](O)[C@@H](COP(=O)(O)OP(=O)(O)OP(=O)(O)O)O1 [Biotin-10-dATP]	≤ 3 h	2 pg	15%	
O=C(CCCC[C@@H]1SC[C@@H]2NC(=O)N[C@@H]21)NCCCCCC(=O)NCCNc1ccn([C@H]2C[C@H](O)[C@@H](COP(=O)(O)OP(=O)(O)OP(=O)(O)O)O2)c(=O)n1 [Biotin-10-dCTP]	≤ 3 h	2 pg	22%	spot of labeled probe visible (sensitivity) ([1]; after 1.5 hours in NBT/BCIP dye mixture): 1 pg
O=C(CCCCCNC(=O)CCCC[C@@H]1SC[C@@H]2NC(=O)N[C@@H]21)NCCCCCCNc1ncnc2c1ncn2[C@H]1C[C@H](O)[C@@H](COP(=O)(O)OP(=O)(O)OP(=O)(O)O)O1 [Biotin-14-dATP]	≤ 3 h	2 pg	33%	
O=C(CCCCCNC(=O)CCCC[C@@H]1SC[C@@H]2NC(=O)N[C@@H]21)NCCCCCCNc1ccn([C@H]2C[C@H](O)[C@@H](COP(=O)(O)OP(=O)(O)OP(=O)(O)O)O2)c(=O)n1 [Biotin-14-dCTP]			42%	
O=C(CCCCCNC(=O)CCCC[C@@H]1SC[C@@H]2NC(=O)N[C@@H]21)NCCCCCCNC(=O)CNc1ncnc2c1ncn2[C@H]1C[C@H](O)[C@@H](COP(=O)(O)OP(=O)(O)OP(=O)(O)O)O1 [Biotin-17-dATP]			6.7%	
NCCCCCCNc1ccn([C@H]2C[C@H](O)[C@@H](COP(=O)(O)OP(=O)(O)OP(=O)(O)O)O2)c(=O)n1 [N^4 --(6-aminohexyl)dCTP, N^4-(6-aminohexyl)dCTP]			74%	
NCCCCCCNc1ncnc2c1ncn2[C@H]1C[C@H](O)[C@@H](COP(=O)(O)OP(=O)(O)OP(=O)(O)O)O1 [N^6 --aminohexyldATP, N^6-(6-aminohexyl)dATP]				activity at 20 µM (DNA polymerase I [2]; read-out: % Incorporation (90 min.), 90 min, 15° C.): 67%
O=C(CCCC[C@@H]1SC[C@@H]2NC(=O)N[C@@H]21)NCCCCCCNc1ncnc2c1ncn2[C@H]1C[C@H](O)[C@@H](COP(=O)(O)OP(=O)(O)OP(=O)(O)O)O1 [[^3 H-biotin]-7-dATP]				correspondence of time courses of incorporation of 32P-dCMP and the tritium labelled and biotinylated derivative of dAMP (DNA polymerase I [3]): close correspondence
Nc1ncnc2c1ncn2[C@H]1C[C@H](O)[C@@H](COP(=O)(O)OP(=O)(O)OP(=O)(O)O)O1 [dATP, reference compound]			100%	
Nc1ccn([C@H]2C[C@H](O)[C@@H](COP(=O)(O)OP(=O)(O)OP(=O)(O)O)O2)c(=O)n1 [dCTP, reference compound]			100%	
N^6 -(6-hexylamidobiotin-2'-deoxyadenosine 5'-monophosphate [Bio-7-dAMP]				Bio-7-dAMP per Kb (DNA polymerase I [4]; 10 min nick translation): 7 per Kb; Bio-7-dAMP per Kb (DNA polymerase I [4]; 30 min nick translation): 35 per Kb; Bio-7-dAMP per Kb (DNA polymerase I [4]; 90 min nick translation): 98 per Kb

From patent US4828979A, “Nucleotide analogs for nucleic acid labeling and detection” (Life Technologies, Inc., priority 1984, dated 1989)
